Active and inactive are the calls of the source. No cut-off for these calls is given here.
Columns and labels:
[1] = Cytotoxicity against human Nakata cells; format: cell-based
A-431 = experiment: Cytotoxicity against human A431 cells; format: cell-based
Phytophthora capsici = experiment: Antifungal activity against Phytophthora capsici by paper disk assay; format: functional, organism-based

C=CC(=C)CC(=C)/C(C)=C/CC/C=C/C=C(\C)C[C@@H]1O[C@@H](C(O)C(O)C(O)/C(C)=C/C=C/CNC(=O)/C=C/C=C/C(O)CC(O)C(O)C[C@H]2O[C@@H]([C@H]3C[C@H](O)[C@H](O)[C@@](C)(CO)O3)[C@H](O)C(O)[C@@H]2O)[C@@H](O)[C@H](O)[C@H]1O (stereo partly drawn) [ZOOXANTHELLAMIDE D]
IC50 [1]: 6.6 µM | IC50 (A-431): 4.5 µM | Activity (Phytophthora capsici): inactive
